Tests used:
Gamma-secretase [1] = assay: Modulation of gamma-secretase in human H4 cells expressing human APP assessed as reduction in amyloid beta42 level incubated for 22 hrs; format: cell-based
[2] = Inhibition of notch signalling (unknown origin); set-up: species or system Homo sapiens
[3] = Lipophilicity, logD of the compound; format: physicochemical; details: octanol/water
[4] = In vivo modulation of gamma secretase in C57BL/6 mouse assessed as reduction in amyloid beta42 level at 10 mg/kg, po measured at 3 hrs relative to control; format: functional; set-up: scale not given: the % may be the effect or the level left
[5] = In vivo modulation of gamma secretase in CF1 mouse assessed as increase in amyloid beta38 level at 10 mg/kg, po administered as single dose measured after 16 hrs by ELISA relative to control; format: functional
Gamma-secretase [6] = assay: Modulation of gamma-secretase in human H4 cells expressing human wild type APP751 assessed as reduction in amyloid beta42 level incubated for 17 hrs by ELISA; format: cell-based
[7] = In vivo modulation of gamma secretase in CF1 mouse assessed as increase in brain amyloid beta38 level at 100 mg/kg, po measured after 4 hrs by ELISA relative to control; format: functional
[8] = In vivo modulation of gamma secretase in CF1 mouse assessed as reduction in plasma amyloid beta42 level at 100 mg/kg, po measured after 4 hrs by ELISA relative to control; format: functional; set-up: scale not given: the % may be the effect or the level left
[9] = In vivo modulation of gamma secretase in CF1 mouse assessed as reduction in plasma amyloid beta40 level at 100 mg/kg, po measured after 4 hrs by ELISA relative to control; format: functional; set-up: scale not given: the % may be the effect or the level left
[10] = Maximum concentration of drug in po dosed CF1 mouse brain and measured at 4 hrs by liquid chromatography and tandem mass spectrometry; format: ADME, organism-based; set-up: route oral, time 4 hrs
[11] = In vivo modulation of gamma secretase in transgenic Tg2576 mouse assessed as reduction in soluble amyloid beta42 level at 60 mg/kg, po administered once daily for 65 days by ELISA relative to control; format: functional; set-up: scale not given: the % may be the effect or the level left; details: time 65 day
[12] = In vivo modulation of gamma secretase in CF1 mouse assessed as reduction in brain amyloid beta42 level at 100 mg/kg, po measured after 4 hrs by ELISA relative to control; format: functional; set-up: scale not given: the % may be the effect or the level left
Gamma-secretase [13] = assay: Modulation of gamma-secretase in human H4 cells expressing human wild type APP751 assessed as increase in amyloid beta38 level incubated for 17 hrs by ELISA; format: cell-based
[14] = Modulation of gamma-secretase in CHO cells expressing APP V717F assessed as reduction in amyloid beta42 level; format: cell-based; details: Cricetulus griseus
[15] = In vivo modulation of gamma secretase in CF1 mouse assessed as reduction in brain amyloid beta40 level at 100 mg/kg, po measured after 4 hrs by ELISA relative to control; format: functional; set-up: scale not given: the % may be the effect or the level left
[16] = In vivo modulation of gamma secretase in CF1 mouse assessed as increase in plasma amyloid beta38 level at 100 mg/kg, po measured after 4 hrs by ELISA relative to control; format: functional
[17] = In vivo modulation of gamma secretase in CF1 mouse assessed as reduction in amyloid beta42 level at 10 mg/kg, po administered as single dose measured after 4 hrs by ELISA relative to control; format: functional; set-up: scale not given: the % may be the effect or the level left
[18] = Ratio of drug level in CF1 mouse brain to plasma at 3 to 100 mg/kg, po measured after 4 hrs by liquid chromatography and tandem mass spectrometry; format: ADME, organism-based; details: dose 3-100 mg/kg, read-out: BPR
[19] = Modulation of gamma-secretase in CHO cells expressing APP V717F assessed as increase in amyloid beta38 level; format: cell-based; details: Cricetulus griseus
[20] = In vivo modulation of gamma secretase in transgenic Tg2576 mouse assessed as reduction in insoluble amyloid beta42 level at 60 mg/kg, po administered once daily for 65 days by ELISA relative to control; format: functional; set-up: scale not given: the % may be the effect or the level left; details: time 65 day
[21] = Modulation of gamma secretase in Wistar rat fetal brain-derived neuronal cell incubated for 3 days by ELISA; details: 72 h
[22] = In vivo modulation of gamma secretase in C57BL/6 mouse assessed as reduction in amyloid beta42 level at 30 mg/kg, po measured at 3 hrs relative to control; format: functional; set-up: scale not given: the % may be the effect or the level left
[23] = In vivo modulation of gamma secretase in transgenic Tg2576 C57BL/6 mouse assessed as reduction in amyloid beta42 level at 30 mg/kg, po administered as single dose measured after 4 hrs by ELISA relative to control; format: functional; set-up: scale not given: the % may be the effect or the level left
[24] = In vivo modulation of gamma secretase in transgenic Tg2576 C57BL/6 mouse assessed as reduction in amyloid beta42 level at 10 mg/kg, po administered as single dose measured after 4 hrs by ELISA relative to control; format: functional; set-up: scale not given: the % may be the effect or the level left

## Cc1nsc(N2CCC(Nc3nc4c(-c5ccc(F)c(F)c5F)cccn4n3)C(F)(F)C2)n1 (stereo not given)
Gamma-secretase [1]
  IC50: 0.143 µM

## COc1cc(-c2nnc3n2CCC[C@]3(Oc2cc(F)c(F)c(F)c2)C(C)(C)O)ccc1-c1cnc(C)o1
[2]
  IC50: ≥ 10 µM
[3]
  logD: 3.2
[4]
  Activity: 44%

## COc1cc(-c2nnc3n2CCCC32OCc3c(cccc3C(F)(F)F)N(CC(F)(F)F)C2=O)ccc1-c1cnc(C)o1 (stereo not given)
[3]
  logD: 2.9

## CC1CCN([C@H](c2ccc(F)cc2)c2ccc([C@@H](C)C(=O)O)cc2-c2ccc(C(F)(F)F)cc2)CC1
[5]
  Activity: 50%
Gamma-secretase [6]
  IC50: 0.064 µM
[7]
  Activity: 98%
[8]
  Activity: 45%
[9]
  Activity: 25%
[10]
  Cmax: 7.5 µM
[11]
  Activity: 50%
[12]
  Activity: 60%
Gamma-secretase [13]
  EC50: 0.146 µM
[14]
  IC50: 0.17 µM
[15]
  Activity: 16%
[16]
  Activity: 82%
[17]
  Activity: 40%
[18]
  Kp at 4 h: 0.8
[19]
  EC50: 0.15 µM
[20]
  Activity: 80%

## COc1cc(-c2nnc3n2CCC[C@@]3(Oc2cc(F)c(F)c(F)c2)C(C)(C)O)ccc1-c1cnc(C)o1
[3]
  logD: 3.2

## COc1cc(/C=C2\CCCN([C@@H](C)c3ccc(F)cc3)C2=O)ccc1-n1cnc(C)c1
[21]
  IC50: 0.093 µM

## COc1cc(-c2nnc3n2CCCC3(Cc2ccc(F)c(F)c2)C(=O)NCC(F)(F)F)ccc1-c1cnc(C)o1 (stereo not given)
[22]
  Activity: 4%
[3]
  logD: 3

## COc1cc(-c2nnc3n2CCCC3(Oc2ccc(F)c(Cl)c2)C(C)(C)O)ccc1-c1cnc(C)o1 (stereo not given)
[3]
  logD: 3.2

## COc1cc(-c2nnc3n2CCCC32OCc3c(Cl)cccc3N(CC(F)(F)F)C2=O)ccc1-c1cnc(C)o1 (stereo not given)
[3]
  logD: 2.8

## O=C(O)[C@H](CC1CCC1)c1cc(Cl)c(OCC(F)(F)F)c(-c2ccc(C(F)(F)F)cc2)c1
[23]
  Activity: 38%
[24]
  Activity: 22%

## COc1cc(-c2nnc3n2CCCC3c2ccc(Cl)c(Cl)c2)ccc1-c1cnc(C)o1 (stereo not given)
[3]
  logD: 3.2
